In patent US8524745B2 (Allergan, Inc., priority 2011, dated 2013):

Molecular target: T1, CCR2 (Homo sapiens, UniProt P41597)
T1 construct: expressed in transfected cells
Experiment: CCR2 calcium activity assay on FLIPR Tetra in HEK-Gqi5 cells stably expressing CCR2
Format: cell-based
Procedure: HEK-Gqi5 cells stably expressing CCR2 were cultured in (DMEM high glucose, 10% FBS, 1% PSA, 400 μg/ml geneticin and 50 μg/ml hygromycin. Appropriate positive control chemokines (MCP-1, MIP1A or RANTES) was used as the positive control agonist for screening compound-induced calcium activity assayed on the FLIPR^Tetra. The drug plates were prepared in 384-well microplates using the EP3 and the MuItiPROBE robotic liquid handling systems. Compounds were synthesized and tested for CCR2 activity.

T1 sequence (P41597 whole entry, species assumed): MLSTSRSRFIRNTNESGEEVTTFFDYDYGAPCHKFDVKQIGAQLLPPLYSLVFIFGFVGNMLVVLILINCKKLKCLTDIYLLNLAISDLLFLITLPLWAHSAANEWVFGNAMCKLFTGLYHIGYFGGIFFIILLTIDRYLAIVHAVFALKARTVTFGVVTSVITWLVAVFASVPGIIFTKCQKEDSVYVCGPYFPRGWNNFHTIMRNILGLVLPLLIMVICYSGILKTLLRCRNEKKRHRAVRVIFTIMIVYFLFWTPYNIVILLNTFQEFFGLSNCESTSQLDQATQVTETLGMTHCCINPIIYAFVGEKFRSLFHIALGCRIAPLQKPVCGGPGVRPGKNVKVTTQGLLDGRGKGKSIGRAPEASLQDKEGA

| Compound | CCR2 % ANTAG | IC50 |
| --- | --- | --- |
| CN(C)c1ccc(NS(=O)(=O)c2cccs2)c(NS(=O)(=O)c2ccc3c(c2)c(=O)sn3C)c1 | 35% | 551 nM |
| Cn1sc(=O)c2cc(S(=O)(=O)N[C@@H]3CCCC[C@H]3NS(=O)(=O)c3cccs3)ccc21 (relative stereo) [rel-1-methyl-3-oxo-N-{(1R,2R)-2-[(2-thienylsulfonyl)amino]cyclohexyl}-1,3-dihydro-2,1-benzisothiazole-5-sulfonamide] | 79% | 2370 nM |
| Cn1sc(=O)c2cc(S(=O)(=O)N[C@@H]3CCCC[C@@H]3NS(=O)(=O)c3cccs3)ccc21 (relative stereo) [rel-1-methyl-3-oxo-N-{(1R,2S)-2-[(2-thienylsulfonyl)amino]cyclohexyl}-1,3-dihydro-2,1-benzisothiazole-5-sulfonamide] | 65% | 2180 nM |
| Cn1sc(=O)c2cc(S(=O)(=O)N[C@@H]3CCCC[C@H]3NS(=O)(=O)c3ccc(Cl)c(C(F)(F)F)c3)ccc21 (relative stereo) [rel-N-[(1R,2R)-2-({[4-chloro-3-(trifluoromethyl)phenyl]sulfonyl}amino)cyclohexyl]-1-methyl-3-oxo-1,3-dihydro-2,1-benzisothiazole-5-sulfonamide] | 96% | 543 nM |
| Cn1sc(=O)c2cc(S(=O)(=O)N[C@@H]3CCCC[C@H]3NC(=O)c3cccs3)ccc21 (relative stereo) [rel-N-[(1R,2R)-2-{[(1-methyl-3-oxo-1,3-dihydro-2,1-benzisothiazol-5-yl)sulfonyl]amino}cyclohexyl]thiophene-2-carboxamide] | 46% |  |
| Cn1sc(=O)c2cc(S(=O)(=O)N[C@@H]3CCCC[C@@H]3NS(=O)(=O)c3ccc(Cl)c(C(F)(F)F)c3)ccc21 (relative stereo) [rel-N-[(1R,2S)-2-({[4-chloro-3-(trifluoromethyl)phenyl]sulfonyl}amino)cyclohexyl]-1-methyl-3-oxo-1,3-dihydro-2,1-benzisothiazole-5-sulfonamide] | 93% | 1240 nM |
| CC(C)n1sc(=O)c2cc(S(=O)(=O)Nc3cccc4c3OC(F)(F)C(F)(F)O4)ccc21 [1-isopropyl-3-oxo-N-(2,2,3,3-tetrafluoro-2,3-dihydro-1,4-benzodioxin-5-yl)-1,3-dihydro-2,1-benzisothiazole-5-sulfonamide] | 68% | 559 nM |
| CC(C)n1sc(=O)c2cc(S(=O)(=O)Nc3ccccc3NS(=O)(=O)c3cccs3)ccc21 [1-isopropyl-3-oxo-N-{2-[(2-thienylsulfonyl)amino]phenyl}-1,3-dihydro-2,1-benzisothiazole-5-sulfonamide] | 90% | 4320 nM |
| Cn1sc(=O)c2cc(S(=O)(=O)Nc3cc(Cl)c(Cl)cc3Cl)ccc21 [1-methyl-3-oxo-N-(2,4,5-trichlorophenyl)-1,3-dihydro-2,1-benzisothiazole-5-sulfonamide] | 79% | 1660 nM |
| Cn1sc(=O)c2cc(S(=O)(=O)Nc3ccccc3NC(=O)Nc3cccs3)ccc21 [1-methyl-3-oxo-N-(2-{[(2-thienylamino)carbonyl]amino}phenyl)-1,3-dihydro-2,1-benzisothiazole-5-sulfonamide] | 58% | 2530 nM |
| Cn1sc(=O)c2cc(S(=O)(=O)Nc3ccccc3CNS(=O)(=O)c3cccs3)ccc21 [1-methyl-3-oxo-N-(2-{[(2-thienylsulfonyl)amino]methyl}phenyl)-1,3-dihydro-2,1-benzisothiazole-5-sulfonamide] | 61% |  |
| Cn1sc(=O)c2cc(S(=O)(=O)NC3CCCN(S(=O)(=O)c4cccs4)C3)ccc21 (centres unmarked) [1-methyl-3-oxo-N-[1-(2-thienylsulfonyl)piperidin-3-yl]-1,3-dihydro-2,1-benzisothiazole-5-sulfonamide] | 39% |  |
| Cn1sc(=O)c2cc(S(=O)(=O)NC3CCN(S(=O)(=O)c4cccs4)C3)ccc21 (centres unmarked) [1-methyl-3-oxo-N-[1-(2-thienylsulfonyl)pyrrolidin-3-yl]-1,3-dihydro-2,1-benzisothiazole-5-sulfonamide] | 22% |  |
| Cn1sc(=O)c2cc(S(=O)(=O)Nc3ccccc3NS(=O)(=O)c3cccc(C(F)(F)F)c3)ccc21 [1-methyl-3-oxo-N-[2-({[3-(trifluoromethyl)phenyl]sulfonyl}amino)phenyl]-1,3-dihydro-2,1-benzisothiazole-5-sulfonamide] | 94% | 2210 nM |
| Cn1sc(=O)c2cc(S(=O)(=O)Nc3ccccc3NS(=O)(=O)c3ccc(C(F)(F)F)cc3)ccc21 [1-methyl-3-oxo-N-[2-({[4-(trifluoromethyl)phenyl]sulfonyl}amino)phenyl]-1,3-dihydro-2,1-benzisothiazole-5-sulfonamide] | 24% | 606 nM |
| Cn1sc(=O)c2cc(S(=O)(=O)Nc3cccc(OC(F)(F)F)c3)ccc21 [1-methyl-3-oxo-N-[3-(trifluoromethoxy)phenyl]-1,3-dihydro-2,1-benzisothiazole-5-sulfonamide] | 92% | 920 nM |

| Compound | CCR2 % ANTAG | IC50 |
| --- | --- | --- |
| Cn1sc(=O)c2cc(S(=O)(=O)Nc3cccc(C(F)(F)F)c3)ccc21 [1-methyl-3-oxo-N-[3-(trifluoromethyl)phenyl]-1,3-dihydro-2,1-benzisothiazole-5-sulfonamide] | 84% |  |
| Cn1sc(=O)c2cc(S(=O)(=O)Nc3cc(C(F)(F)F)ccc3NS(=O)(=O)c3cccs3)ccc21 [1-methyl-3-oxo-N-{2-[(2-thienylsulfonyl)amino]-5-(trifluoromethyl)phenyl}-1,3-dihydro-2,1-benzisothiazole-5-sulfonamide] | 103% | 701 nM |
| Cn1sc(=O)c2cc(S(=O)(=O)NCc3ccccc3NS(=O)(=O)c3cccs3)ccc21 [1-methyl-3-oxo-N-{2-[(2-thienylsulfonyl)amino]benzyl}-1,3-dihydro-2,1-benzisothiazole-5-sulfonamide] | 56% | 2180 nM |
| Cn1sc(=O)c2cc(S(=O)(=O)Nc3cccnc3NS(=O)(=O)c3cccs3)ccc21 [1-methyl-3-oxo-N-{2-[(2-thienylsulfonyl)amino]pyridin-3-yl}-1,3-dihydro-2,1-benzisothiazole-5-sulfonamide] | 83% | 1910 nM |
| Cn1sc(=O)c2cc(S(=O)(=O)Nc3ccccc3NS(=O)(=O)c3nnc[nH]3)ccc21 [1-methyl-3-oxo-N-{2-[(4H-1,2,4-triazol-3-ylsulfonyl)amino]phenyl}-1,3-dihydro-2,1-benzisothiazole-5-sulfonamide] | 90% | 1100 nM |
| Cn1sc(=O)c2cc(S(=O)(=O)Nc3ccccc3NS(=O)(=O)c3ccccc3)ccc21 [1-methyl-3-oxo-N-{2-[(phenylsulfonyl)amino]phenyl}-1,3-dihydro-2,1-benzisothiazole-5-sulfonamide] | 97% | 887 nM |
| Cn1sc(=O)c2cc(S(=O)(=O)Nc3ccccc3NS(=O)(=O)c3cccnc3)ccc21 [1-methyl-3-oxo-N-{2-[(pyridin-3-ylsulfonyl)amino]phenyl}-1,3-dihydro-2,1-benzisothiazole-5-sulfonamide] | 77% |  |
| Cn1sc(=O)c2cc(S(=O)(=O)Nc3cc4ccccc4cc3NS(=O)(=O)c3cccs3)ccc21 [1-methyl-3-oxo-N-{3-[(2-thienylsulfonyl)amino]-2-naphthyl}-1,3-dihydro-2,1-benzisothiazole-5-sulfonamide] | 96% | 2180 nM |
| Cn1sc(=O)c2cc(S(=O)(=O)Nc3cccc(NS(=O)(=O)c4cccs4)c3)ccc21 [1-methyl-3-oxo-N-{3-[(2-thienylsulfonyl)amino]phenyl}-1,3-dihydro-2,1-benzisothiazole-5-sulfonamide] | 23% | 2870 nM |
| Cn1sc(=O)c2cc(S(=O)(=O)Nc3cccc(SC(F)(F)F)c3)ccc21 [1-methyl-3-oxo-N-{3-[(trifluoromethyl)thio]phenyl}-1,3-dihydro-2,1-benzisothiazole-5-sulfonamide] | 85% |  |
| Cn1sc(=O)c2cc(S(=O)(=O)N3CCN(S(=O)(=O)c4cccs4)c4ccccc43)ccc21 [1-methyl-5-{[4-(2-thienylsulfonyl)-3,4-dihydroquinoxalin-1(2H)-yl]sulfonyl}-2,1-benzisothiazol-3(1H)-one] | 65% | 2080 nM |
| Cn1cnc(S(=O)(=O)Nc2ccccc2NS(=O)(=O)c2ccc3c(c2)c(=O)sn3C)c1 [1-methyl-N-(2-{[(1-methyl-1H-imidazol-4-yl)sulfonyl]amino}phenyl)-3-oxo-1,3-dihydro-2,1-benzisothiazole-5-sulfonamide] | 99% | 963 nM |
| Cn1ccc(S(=O)(=O)Nc2ccccc2NS(=O)(=O)c2ccc3c(c2)c(=O)sn3C)n1 [1-methyl-N-(2-{[(1-methyl-1H-pyrazol-3-yl)sulfonyl]amino}phenyl)-3-oxo-1,3-dihydro-2,1-benzisothiazole-5-sulfonamide] | 53% | 1680 nM |
| Cn1cc(S(=O)(=O)Nc2ccccc2NS(=O)(=O)c2ccc3c(c2)c(=O)sn3C)cn1 [1-methyl-N-(2-{[(1-methyl-1H-pyrazol-4-yl)sulfonyl]amino}phenyl)-3-oxo-1,3-dihydro-2,1-benzisothiazole-5-sulfonamide] | 60% | 2480 nM |
| CSc1cccc(NS(=O)(=O)c2ccc3c(c2)c(=O)sn3C)c1 [1-methyl-N-[3-(methylthio)phenyl]-3-oxo-1,3-dihydro-2,1-benzisothiazole-5-sulfonamide] | 86% | 1190 nM |
| Cn1sc(=O)c2cc(S(=O)(=O)NCC(C)(C)NS(=O)(=O)c3cccs3)ccc21 [1-methyl-N-{2-methyl-2-[(2-thienylsulfonyl)amino]propyl}-3-oxo-1,3-dihydro-2,1-benzisothiazole-5-sulfonamide] | 30% |  |
